Publication PMC11783601, “Analogue-Sensitive Inhibition of Histone Demethylases Uncovers Member-Specific Function in Ribosomal Protein Synthesis” (Journal of the American Chemical Society, 2025)
“Also recorded” adds a separate entry of the source.

Experiments:
endogenous 2OG enzymes = test: Effect of 6A/B on post-translational/post-synthetic modifications in HEK293T cells (Western blot, dot blot); type: cell-based, human
Description: To test the orthogonality of NOL toward wild type KDM4A, HEK293T cells, either nontransfected or transfected with KDM4A, were individually treated with DMSO, 400 μM 6A or 10 μM n-octyl IOX1, a nonspecific inhibitor of 2OG enzymes. […] To further probe for off-target effects of 6 on endogenous 2OG enzymes, HEK293T cells were cultured with DMSO or 400 μM 6A and examined for several postsynthetic modifications catalyzed by these dioxygenases. Key trimethylated lysine marks on extracted histone were analyzed by Western blot using corresponding antibodies (Figure S31). […] Similarly, no change in prolyl hydroxylation was detected when cellular extracts were subjected to the pan hydroxyproline antibody. […]
washed with TBST 3 times, 5 minutes each and incubated with methylene blue solution (Sigma 03978) for loading determination.
15. Determining the effect of 6A/B on post-translational modifications in HEK293T cells To determine the effects of 6B on 5hmC and 5mC levels, and correspondingly any proteins responsible for addition or removal of these motifs, HEK293-T cells (ATCC CRL-1573) were plated into 6-well tissue culture plates (Corning) in DMEM (Corning) supplemented with 10% FBS (Corning) and 1X Antibiotic/Antimycin (Penicillin/Streptomycin/Fungiozone) (Cytiva HyClone) in an incubator held at 37 °C with 5% CO2. At 75% confluency, cells were treated with 200µM 6B or equivalent volume of DMSO and left to incubate at 37 °C. 24 hours later, the media was aspirated, washed with 1X PBS (Corning) and uplifted via trypsinization (Gibco TrypLE™ Express Enzyme). Cells were centrifuged at 3000xg for 3 minutes, washed with 1X PBS and centrifuged again at 3000xg for 3 minutes.
To study the effect on genomic DNA, genomic DNA was extracted with Fisher GeneJET gemoic DNA Purification Kit (Fisher K0721) following manufactures protocol. 1000ng of gDNA, as measured via nanodrop, was then subject to Dot Blot experiment. Briefly, 20µL of 1000ng gDNA was added to 40µL of 2M NaOH-50mM EDTA solution for 3 minutes at room temperature. 140µL of 10mM Tris/1mM EDTA pH 8.0 (TE) buffer was added and heated at 95 °C for 10 minutes.
Aliquots were then transferred directly to ice and 200µL of 2M Ammonium Acetate was added and left on ice for 5 minutes. Meanwhile, PVDF Imoblinin P (Merck Millipore Ltd.) membrane was cut to size, activated with MeOH for 30 seconds and incubated in TE buffer for 5 minutes while shaking. The membrane was then placed on a 96-well Bio-Dot microfiltration apparatus (Bio-Rad), washed with 400µL of TE buffer and the gDNA solution was applied and vacuum filtered. 400µL of TE buffer was then used to wash the membrane post gDNA binding. The membrane was then dried at 37 °C for 30 minutes followed by blocking in 5% milk concentrate (Bio-Rad) TBST solution for 1 hour at room temperature. Primary antibody 5-mC (Abcam […]
was applied and left to rotate overnight at 4 °C. The following day, the blots were washed 3 times, 5 minutes each with TBST and secondary antibody of goat-anti Rabbit antibody (CST 7074) in 5% milk/TBST at 1-10000 dilution was added for 1 hour at room temperature while shaking. The […]
To study the effect of histone methyl motifs (H3K4me3, H3K9me3, H3K27me3, H3K36me3, H3K79me3) and hydroxyproline motif, cell pellets were lysed with RIPA buffer with EDTA (Fisher J61529) supplemented with 1X protease inhibitor tablet (Roche). […] The protein concentration was determined using Bradford assay kit (BioRad Laboratories) with BSA as a […]

wild type KDM4A = target: T1, wild type KDM4A (Homo sapiens, UniProt O75164); test: MALDI-MS end-point demethylase assay on H3K9me3 peptide; type: biochemical
T1 construct: human KDM4A-jmjC domain (catalytic domain of KDM4A); 6xHis (N); host or cells: E. coli BL21 (DE3)
T1 sequence (O75164 142-308 limits assumed): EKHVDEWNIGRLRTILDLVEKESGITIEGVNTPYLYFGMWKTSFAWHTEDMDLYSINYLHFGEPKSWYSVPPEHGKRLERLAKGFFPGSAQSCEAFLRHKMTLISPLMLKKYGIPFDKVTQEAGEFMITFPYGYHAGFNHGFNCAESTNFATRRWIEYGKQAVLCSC
Description: To develop an appropriate inhibitor, we selected N-oxalyl glycine (NOG, 2) scaffold because of its structural similarity with 2OG and the ability to inhibit 2OG-utilizing enzymes including KDMs (Figure 1C).[29]−[31] Substituting −CH2– at C3 of 2OG with −NH– in NOG prevents its oxidative decarboxylation by KDMs, making the inhibitor cofactor-competitive. […] We synthesized a panel of eight NOG analogues (3–10), derived from L-amino acids, carrying varied steric substituents at C4, with the reasoning that a bulky substituent at C4 would selectively fit into the expanded pocket of F185A over wild type KDM4A (Figures 2B and S1–S6, Schemes S1 and S2). The inhibitory effect of each compound was determined based on the extent of enzyme-catalyzed demethylation of a canonical peptide substrate corresponding to the N-terminus of histone 3 carrying trimethylated lysine at position 9 (H3K9me3). […] Such orthogonal inhibition of the engineered demethylase constitutes a powerful chemical probe to study the functions of a specific member of an enzyme family without issues of off-target activity.
assay (Biorad) kit with BSA concentrations as a standard. […]
8. […]
2 mM L-ascorbic acid with a total assay volume of 10 µL. Fe(II) supplement and L-ascorbic acid
Lastly, the 2OG and peptide were
positive mode and analyzed on Bruker FlexAnalysis software. The percent demethylated peptide
the multiple demethylation events on the peptide. […]

Structure (SMILES) | prolyl hydroxylation (pan hydroxyproline antibody) (endogenous 2OG enzymes; HEK293T cells, 400 μM 6A) | trimethylated K4, K9, K27, and K36 levels in histone H3 (endogenous 2OG enzymes; HEK293T cells, 400 μM 6A, Western blot) | 5mC, 5hmC, and m6A modifications on DNA and RNA (endogenous 2OG enzymes; HEK293T cells, dot blot assays) | 5mC and 5hmC marks on genomic DNA (endogenous 2OG enzymes; HEK293T cells, dot-blot assay) | dimethyllysine, trimethyllysine and hydroxyproline marks on cellular proteins (endogenous 2OG enzymes; HEK293T cellular extracts, pan antibodies, Western blot) | inhibition of wild type KDM4A demethylase activity (MALDI-MS) (wild type KDM4A; H3K9me3 peptide, 200 µM 2OG, fixed concentration of NOG analogue) | dose-dependent inhibition of wild type KDM4A (wild type KDM4A; up to 500 μM)
CCCCCCCCOC(=O)C(=O)NC(CC(C)C)C(=O)O [6A, L-Leu octyl-ester NOG] | no change | No change | no effect | no inhibitory effect | no inhibitory effect | – | –
CC(C)CC(NC(=O)C(=O)O)C(=O)O (stereo not shown) [compound 6, N-oxalyl leucine] | – | – | – | – | – | without affecting | no inhibitory effect; also recorded: does not inhibit
